In EPA's ToxRefDB 2:

Tests used:
[1] = tested on: rat; conditions: Subchronic oral toxicity in rodents, sprague dawley, Gavage/Intubation, dose end: 90 day, group: systemic, systemic / clinical chemistry / calcium / calcium + systemic / clinical chemistry / cholesterol / cholesterol + systemic / clinical …
[2] = tested on: rat; conditions: Prenatal developmental toxicity study, sprague dawley, Oral, Gavage/Intubation, dose end: 18 GD
[3] = tested on: rat; conditions: Subchronic oral toxicity in rodents, sprague dawley, Feed, dose end: 92 day, group: systemic
[4] = tested on: rabbit; conditions: Prenatal developmental toxicity study, new zealand white, Oral, Gavage/Intubation, dose end: 19 GD, group: maternal
[5] = tested on: rat; conditions: Sub-acute repeat dose toxicity; Oral; Gavage/Intubation; dose end: 19 day; group: systemic; systemic / in life observation / body weight / body weight + systemic / in life observation / clinical signs / salivation
[6] = tested on: rat; conditions: Sub-acute repeat dose toxicity; Oral; Gavage/Intubation; dose end: 14 day; group: systemic; systemic / in life observation / body weight / body weight gain + systemic / in life observation / clinical signs / reduced activity + …
[7] = tested on: rat; conditions: Fertility (Segment I); sprague dawley; Oral; Gavage/Intubation; dose end: 1 generation; group: parental; systemic / in life observation / body weight / body weight + systemic / in life observation / clinical signs / salivation + systemic / in …
[8] = tested on: mouse; conditions: Subchronic oral toxicity in rodents, Feed, dose end: 92 day, group: systemic
[9] = tested on: rat; conditions: Sub-acute repeat dose toxicity; Oral; Gavage/Intubation; dose end: 38 day; group: systemic; systemic / clinical chemistry / albumin / albumin + systemic / clinical chemistry / creatinine / creatinine + systemic / clinical chemistry…
[10] = tested on: dog; conditions: Sub-acute repeat dose toxicity, beagle, Oral, Gavage/Intubation, dose end: 8 day, group: systemic
[11] = tested on: rabbit; conditions: Sub-acute repeat dose toxicity; new zealand white; Oral; Gavage/Intubation; dose end: 5 day; group: systemic; systemic / in life observation / food consumption / food consumption
[12] = tested on: rat; conditions: Peri- and post-natal toxicity study (Segment III), Oral, Gavage/Intubation, dose end: 1 generation
[13] = tested on: dog; conditions: Subchronic oral toxicity in nonrodent, beagle, Gavage/Intubation, dose end: 98 day, group: systemic
[14] = tested on: rat; conditions: Sub-acute repeat dose toxicity, sprague dawley, Oral, Feed, dose end: 15 day, group: systemic
[15] = tested on: mouse; conditions: Sub-acute repeat dose toxicity, Oral, Feed, dose end: 15 day, group: systemic
[16] = tested on: rat; conditions: Fertility (Segment I); sprague dawley; Oral; Gavage/Intubation; dose end: 1 generation; group: parental; systemic / in life observation / body weight / body weight + systemic / in life observation / clinical signs / salivation + systemic / in …; remark: listed apart in the source
[17] = tested on: rabbit; conditions: Sub-acute repeat dose toxicity, new zealand white, Oral, Gavage/Intubation, dose end: 13 day
[18] = tested on: mouse; conditions: Carcinogenicity, cd1, Oral, Feed, dose end: 19 month, group: systemic
[19] = tested on: rat; conditions: Combined chronic toxicity/carcinogenicity; other; Oral; Feed; dose end: 102 week; group: systemic; systemic / pathology microscopic / kidney / degeneration + systemic / pathology microscopic / kidney / dilatation + systemic / pathology …
[20] = tested on: dog; conditions: Chronic toxicity, beagle, Oral, Feed, dose end: 52 week, group: systemic
[21] = tested on: rat; conditions: Subchronic oral toxicity in rodents, sprague dawley, Feed, dose end: 13 week, group: systemic, systemic / clinical chemistry / urea nitrogen / urea nitrogen + systemic / clinical chemistry / creatinine / creatinine + systemic / …
[22] = tested on: dog; conditions: Subchronic oral toxicity in nonrodent, beagle, Feed, dose end: 90 day, group: systemic
[23] = tested on: rat; conditions: Subchronic oral toxicity in rodents, sprague dawley, Feed, dose end: 90 day, group: systemic
[24] = group: developmental, developmental / developmental malformation / bone / [other] + systemic / in life observation / body weight / fetal weight
[25] = group: maternal, systemic / in life observation / body weight / body weight + systemic / in life observation / clinical signs / salivation + systemic / in …
[26] = systemic / in life observation / body weight / body weight
[27] = systemic / in life observation / body weight / body weight + systemic / in life observation / clinical signs / lacrimation or red-colored …
[28] = systemic / in life observation / food consumption / food consumption
[29] = systemic / in life observation / food consumption / food consumption + reproductive / reproductive performance / aborted / aborted + …
[30] = systemic / clinical chemistry / cholesterol / cholesterol + systemic / in life observation / body weight / body weight + systemic / clinical…
[31] = systemic / hematology / lymphocyte / lymphocyte
[32] = systemic / hematology / leukocyte (wbc) count differential / leukocyte (wbc) + systemic / in life observation / clinical signs / abnormal …
[33] = systemic / in life observation / clinical signs / abnormal feces + systemic / in life observation / clinical signs / salivation
[34] = group: developmental, developmental / developmental landmark / eye opening / eye opening
[35] = group: parental, systemic / in life observation / body weight / body weight + systemic / in life observation / body weight / body weight gain + systemic / in…
[36] = systemic / in life observation / clinical signs / salivation
[37] = systemic / in life observation / clinical signs / salivation + systemic / in life observation / clinical signs / emesis
[38] = systemic / in life observation / body weight / body weight + systemic / in life observation / clinical signs / alopecia + systemic / in life…
[39] = systemic / in life observation / body weight / body weight + systemic / in life observation / clinical signs / hunched posture + systemic / …
[40] = group: maternal, reproductive / reproductive performance / aborted / aborted
[41] = group: systemic, systemic / in life observation / body weight / body weight gain + systemic / in life observation / food consumption / food consumption
[42] = group: systemic, systemic / in life observation / body weight / body weight gain + systemic / in life observation / food consumption / food consumption + …
[43] = systemic / in life observation / body weight / body weight gain + systemic / clinical chemistry / alkaline phosphatase (alp/alk) / alkaline …
[44] = systemic / organ weight / ovary / absolute + systemic / organ weight / ovary / relative to body weight + systemic / organ weight / ovary / …

For `CS(=O)(=O)O.Cc1nccn1-c1ccc(Sc2cccc(C3(C(N)=O)CCOCC3)c2)cc1`, the LEL [1] was 20 mg/kg/day, the LOAEL [1] was > 150 mg/kg/day and the NEL [1] was 5 mg/kg/day. The NOAEL [1] was ≥ 150 mg/kg/day, the LEL [2, 24] was 50 mg/kg/day and the LOAEL [2, 24] was > 50 mg/kg/day. The NOAEL [2, 24] was ≥ 50 mg/kg/day, the LOAEL [2, 25] was > 50 mg/kg/day and the NEL [2, 25] was 5 mg/kg/day. For the same compound, the NOAEL [2, 25] was ≥ 50 mg/kg/day, the LEL ([2]; group: maternal, systemic / in life observation / body weight / body weight + systemic / in life observation / food consumption / food consumption) was 15 mg/kg/day and the LEL [3, 26] was 10 mg/kg/day. The NEL [3, 26] was < 10 mg/kg/day, the LOAEL [3, 27] was > 100 mg/kg/day and the NOAEL [3, 27] was ≥ 100 mg/kg/day. The LEL [4, 28] was 2 mg/kg/day, the NEL [4, 28] was < 2 mg/kg/day and the LOAEL [4, 29] was > 25 mg/kg/day. For the same compound, the NOAEL [4, 29] was ≥ 25 mg/kg/day, the LEL [5] was 100 mg/kg/day and the LOAEL [5] was > 100 mg/kg/day. For the same compound, the NEL [5] was < 100 mg/kg/day, the NOAEL [5] was ≥ 100 mg/kg/day and the LEL [6] was 200 mg/kg/day. For the same compound, the LOAEL [6] was > 200 mg/kg/day, the NEL [6] was < 200 mg/kg/day and the NOAEL [6] was ≥ 200 mg/kg/day. The LEL [7] was 50 mg/kg/day, the LOAEL [7] was > 50 mg/kg/day and the NEL [7] was 15 mg/kg/day. The NOAEL [7] was ≥ 50 mg/kg/day, the LOAEL [8, 30] was > 600 mg/kg/day and the NOAEL [8, 30] was ≥ 600 mg/kg/day. The LEL [8, 31] was 30 mg/kg/day, the NEL [8, 31] was < 30 mg/kg/day and the LEL [9] was 250 mg/kg/day. The LOAEL [9] was > 250 mg/kg/day, the NEL [9] was < 250 mg/kg/day and the NOAEL [9] was ≥ 250 mg/kg/day. For the same compound, the LOAEL [10, 32] was > 60 mg/kg/day, the NOAEL [10, 32] was ≥ 60 mg/kg/day and the LEL [10, 33] was 3 mg/kg/day. For the same compound, the NEL [10, 33] was < 3 mg/kg/day, the LEL [11] was 10 mg/kg/day and the LOAEL [11] was > 100 mg/kg/day. For the same compound, the NEL [11] was < 10 mg/kg/day, the NOAEL [11] was ≥ 100 mg/kg/day and the LEL [12, 34] was 50 mg/kg/day. The LOAEL [12, 34] was > 50 mg/kg/day, the NOAEL [12, 34] was ≥ 50 mg/kg/day and the LEL [12, 35] was 15 mg/kg/day. The LOAEL [12, 35] was > 50 mg/kg/day, the NEL [12, 35] was 5 mg/kg/day and the NOAEL [12, 35] was ≥ 50 mg/kg/day. For the same compound, the LEL [13, 36] was 3 mg/kg/day, the NEL [13, 36] was < 3 mg/kg/day and the LOAEL [13, 37] was > 30 mg/kg/day. For the same compound, the NOAEL [13, 37] was ≥ 30 mg/kg/day, the LOAEL [14, 38] was > 600 mg/kg/day and the NEL [14, 38] was 30 mg/kg/day. For the same compound, the NOAEL [14, 38] was ≥ 600 mg/kg/day, the LEL ([14]; systemic / in life observation / body weight / body weight + systemic / in life observation / food consumption / food consumption) was 100 mg/kg/day and the LOAEL [15, 39] was > 1200 mg/kg/day. For the same compound, the NOAEL [15, 39] was ≥ 1200 mg/kg/day, the LEL ([15]; systemic / in life observation / body weight / body weight + systemic / in life observation / food consumption / food consumption + systemic…) was 600 mg/kg/day and the LEL [16] was 50 mg/kg/day. The LOAEL [16] was > 50 mg/kg/day, the NEL [16] was 15 mg/kg/day and the NOAEL [16] was ≥ 50 mg/kg/day. The LEL [17, 40] was 50 mg/kg/day, the LOAEL [17, 40] was > 200 mg/kg/day and the NEL [17, 40] was 10 mg/kg/day. For the same compound, the NOAEL [17, 40] was ≥ 200 mg/kg/day, the LEL [17, 41] was 10 mg/kg/day and the NEL [17, 41] was < 10 mg/kg/day. The LOAEL [17, 42] was > 200 mg/kg/day and the NOAEL [17, 42] was ≥ 200 mg/kg/day.

In the case of `CC1=C(C(=O)Nc2ccccc2)SCCO1` [Carboxin], the LOAEL ([18]; systemic / in life observation / mortality / mortality) is reported as 451 mg/kg/day, the NOAEL ([18]; systemic / in life observation / mortality / mortality + systemic / pathology microscopic / liver / hypertrophy) is reported as 9 mg/kg/day and the LEL ([18]; systemic / pathology microscopic / liver / hypertrophy) is reported as 385 mg/kg/day. For the same compound, the NEL ([18]; systemic / pathology microscopic / liver / hypertrophy + systemic / pathology microscopic / lung / adenoma) was 8 mg/kg/day, the LEL [19] was 9 mg/kg/day and the LOAEL [19] was 9 mg/kg/day. The NEL [19] was 0.8 mg/kg/day, the NOAEL [19] was 0.8 mg/kg/day and the LOAEL ([20]; systemic / in life observation / body weight / body weight gain) was 15 mg/kg/day. It also gave an NEL [20, 43] of 1.3 mg/kg/day, an NOAEL [20, 43] of 1.3 mg/kg/day and an LEL ([20]; systemic / in life observation / body weight / body weight gain + systemic / hematology / mean corpuscular (cell) volume (mcv) / mean …) of 15 mg/kg/day. The LEL [21] was 10 mg/kg/day, the LOAEL [21] was 10 mg/kg/day and the NEL [21] was < 10 mg/kg/day. The NOAEL [21] was < 10 mg/kg/day, the LOAEL [22, 44] was 17.7 mg/kg/day and the NEL [22, 44] was 5.9 mg/kg/day. For the same compound, the NOAEL [22, 44] was 9 mg/kg/day, the LEL ([22]; systemic / pathology microscopic / parathyroid gland / cyst + systemic / pathology microscopic / pituitary gland / cyst) was 9 mg/kg/day and the LOAEL ([23]; systemic / pathology microscopic / kidney / nephropathy) was 10.5 mg/kg/day. The NOAEL ([23]; systemic / pathology microscopic / kidney / nephropathy + systemic / in life observation / clinical signs / defecation) was 5.5 mg/kg/day.
